The test system of experiment [1] is P-P70S6K (T389). Nature of the experiment: Cell based AlphaLISA assay, inhibition of P-P70S6K (T389) (mTORC1 substrate phosphorylation) in MDA-MB-468 cells. The conditions noted are these: Homo sapiens, 4 h, AlphaLISA, two to four hours at 37° C., read-out: pIC50 for Inhibition of mTORC1 and mTORC2 Substrate Phosphorylation, P-P70S6K-(T389) (converted). An outline of the steps:
(§1)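 After treatment, cells were lysed in the kit's buffer once assay medium was withdrawn. Duplicate Alpha measurements tracked each phospho-epitope, and dose-response data were fitted to IC50 following normalization to control wells.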
On the technique in general: In Alpha technology, singlet oxygen from a donor bead excites a nearby acceptor bead.

The test system of experiment [2] is P-4E-BP1 (T37/46). Nature of the experiment: Cell based AlphaLISA assay, inhibition of P-4E-BP1 (T37/46) (mTORC1 substrate phosphorylation) in MDA-MB-468 cells. The conditions noted are these: Homo sapiens, MDA-MB-468, 4 h, AlphaLISA, two to four hours at 37° C., read-out: pIC50 for Inhibition of mTORC1 and mTORC2 Substrate Phosphorylation, P-4E-BP1-(T37/46) (converted). In short, it runs like this: as §1

For experiment [3], the system named is P-Akt (S473). Nature of the experiment: Cell based AlphaLISA assay, inhibition of P-Akt (S473) (mTORC2 substrate phosphorylation) in MDA-MB-468 cells. The conditions noted are these: Homo sapiens, MDA-MB-468, 4 h, AlphaLISA, two to four hours at 37° C., read-out: pIC50 for Inhibition of mTORC1 and mTORC2 Substrate Phosphorylation, p-AKT 1/2/3 -(S473) (converted). An outline of the steps: as §1

Each structure is given as a SMILES string.

As for `CCO[C@@H]1C[C@@H]([C@H](C)C[C@@H]2CC[C@H](n3cc(CCCC(=O)NCCOCCOCCOCCC(=O)NCCOCCOCCC(=O)NCCCCn4nc(-c5ccc6oc(N)nc6c5)c5c(N)ncnc54)nn3)[C@H](OC)C2)OC(=O)[C@@H]2CCCCN2C(=O)C(=O)[C@]2(O)O[C@@H](CC[C@H]2C)C[C@H](OC)/C(C)=C/C=C/C=C/[C@@H](C)C[C@@H](C)C(=O)[C@H](OC)[C@H](O)/C(C)=C/[C@H]1C` [Example 165], the results for the IC50 in experiment [1], in experiment [2] and in experiment [3] were 0.001 to 0.01 µM, 0.0316 to 1 µM and > 1 µM, respectively.

As to `CCO[C@@H]1C[C@@H]([C@H](C)C[C@@H]2CC[C@H](n3cc(CCCC(=O)NCCOCCOCCOCCC(=O)NCCOCCOCCC(=O)NCCCCn4nc(-c5cc6cc(O)ccc6[nH]5)c5c(N)ncnc54)nn3)[C@H](OC)C2)OC(=O)[C@@H]2CCCCN2C(=O)C(=O)[C@]2(O)O[C@@H](CC[C@H]2C)C[C@H](OC)/C(C)=C/C=C/C=C/[C@@H](C)C[C@@H](C)C(=O)[C@H](OC)[C@H](O)/C(C)=C/[C@H]1C` [Example 166], the IC50 in experiment [1], in experiment [2] and in experiment [3] was > 1 µM in each case.

As for `CCO[C@@H]1C[C@@H]([C@H](C)C[C@@H]2CC[C@H](n3cc(CCCC(=O)NCCOCCOCCOCCC(=O)NCCOCCOCCOCCC(=O)NCCCCn4nc(-c5ccc6oc(N)nc6c5)c5c(N)ncnc54)nn3)[C@H](OC)C2)OC(=O)[C@@H]2CCCCN2C(=O)C(=O)[C@]2(O)O[C@@H](CC[C@H]2C)C[C@H](OC)/C(C)=C/C=C/C=C/[C@@H](C)C[C@@H](C)C(=O)[C@H](OC)[C@H](O)/C(C)=C/[C@H]1C` [Example 167], the results for the IC50 in experiment [1], in experiment [2] and in experiment [3] were 0.001 to 0.01 µM, 0.0316 to 1 µM and 0.0316 to 1 µM, respectively.

Consider `CCO[C@@H]1C[C@@H]([C@H](C)C[C@@H]2CC[C@H](n3cc(CCCC(=O)NCCOCCOCCOCCC(=O)NCCOCCOCCOCCC(=O)NCCCCn4nc(-c5cc6cc(O)ccc6[nH]5)c5c(N)ncnc54)nn3)[C@H](OC)C2)OC(=O)[C@@H]2CCCCN2C(=O)C(=O)[C@]2(O)O[C@@H](CC[C@H]2C)C[C@H](OC)/C(C)=C/C=C/C=C/[C@@H](C)C[C@@H](C)C(=O)[C@H](OC)[C@H](O)/C(C)=C/[C@H]1C` [Example 168], for which the IC50 was 0.01 to 1 µM in experiment [1], 0.0316 to 1 µM in experiment [2] and > 1 µM in experiment [3].

`CO/N=C1/C[C@@H]([C@H](C)C[C@@H]2CC[C@H](n3cc(CCCC(=O)NCCOCCOCCOCCC(=O)NCCOCCOCCC(=O)NCCCCn4nc(-c5ccc6oc(N)nc6c5)c5c(N)ncnc54)nn3)[C@H](OC)C2)OC(=O)[C@@H]2CCCCN2C(=O)C(=O)[C@]2(O)O[C@@H](CC[C@H]2C)C[C@H](OC)/C(C)=C/C=C/C=C/[C@@H](C)C[C@@H](C)C(=O)[C@H](OC)[C@H](O)/C(C)=C/[C@H]1C` [Example 169]: the IC50 in experiment [1] is 0.01 to 1 µM; in experiment [2], > 1 µM; in experiment [3], > 1 µM.

As for `CO/N=C1/C[C@@H]([C@H](C)C[C@@H]2CC[C@H](n3cc(CCCC(=O)NCCOCCOCCOCCC(=O)NCCOCCOCCC(=O)NCCCCn4nc(-c5cc6cc(O)ccc6[nH]5)c5c(N)ncnc54)nn3)[C@H](OC)C2)OC(=O)[C@@H]2CCCCN2C(=O)C(=O)[C@]2(O)O[C@@H](CC[C@H]2C)C[C@H](OC)/C(C)=C/C=C/C=C/[C@@H](C)C[C@@H](C)C(=O)[C@H](OC)[C@H](O)/C(C)=C/[C@H]1C` [Example 170], the IC50 was 0.01 to 1 µM in experiment [1], > 1 µM in experiment [2] and > 1 µM in experiment [3].

`CO/N=C1/C[C@@H]([C@H](C)C[C@@H]2CC[C@H](n3cc(CCCC(=O)NCCOCCOCCOCCC(=O)NCCOCCOCCOCCC(=O)NCCCCn4nc(-c5ccc6oc(N)nc6c5)c5c(N)ncnc54)nn3)[C@H](OC)C2)OC(=O)[C@@H]2CCCCN2C(=O)C(=O)[C@]2(O)O[C@@H](CC[C@H]2C)C[C@H](OC)/C(C)=C/C=C/C=C/[C@@H](C)C[C@@H](C)C(=O)[C@H](OC)[C@H](O)/C(C)=C/[C@H]1C` [Example 171]: the IC50 in experiment [1] was 0.01 to 1 µM; in experiment [2], 0.0316 to 1 µM; in experiment [3], > 1 µM.

As for `CO/N=C1/C[C@@H]([C@H](C)C[C@@H]2CC[C@H](n3cc(CCCC(=O)NCCOCCOCCOCCC(=O)NCCOCCOCCOCCC(=O)NCCCCn4nc(-c5cc6cc(O)ccc6[nH]5)c5c(N)ncnc54)nn3)[C@H](OC)C2)OC(=O)[C@@H]2CCCCN2C(=O)C(=O)[C@]2(O)O[C@@H](CC[C@H]2C)C[C@H](OC)/C(C)=C/C=C/C=C/[C@@H](C)C[C@@H](C)C(=O)[C@H](OC)[C@H](O)/C(C)=C/[C@H]1C` [Example 172], the figures for the IC50 in experiment [1], in experiment [2] and in experiment [3] were 0.01 to 1 µM, > 1 µM and > 1 µM, respectively.

`CO[C@H]1C[C@@H]2CC[C@@H](C)[C@@](O)(O2)C(=O)C(=O)N2CCCC[C@H]2C(=O)O[C@H]([C@H](C)C[C@@H]2CC[C@H](n3cc(CCCC(=O)NCCOCCOCCOCCC(=O)NCCOCCOCCC(=O)NCCCCn4nc(-c5ccc6oc(N)nc6c5)c5c(N)ncnc54)nn3)[C@H](OC)C2)C/C(=N/OCc2ccccc2)[C@H](C)/C=C(\C)[C@@H](O)[C@@H](OC)C(=O)[C@H](C)C[C@H](C)/C=C/C=C/C=C/1C` [Example 173]: the IC50 was 0.01 to 1 µM in experiment [1], > 1 µM in experiment [2] and > 1 µM in experiment [3].

Consider `CO[C@H]1C[C@@H]2CC[C@@H](C)[C@@](O)(O2)C(=O)C(=O)N2CCCC[C@H]2C(=O)O[C@H]([C@H](C)C[C@@H]2CC[C@H](n3cc(CCCC(=O)NCCOCCOCCOCCC(=O)NCCOCCOCCOCCC(=O)NCCCCn4nc(-c5ccc6oc(N)nc6c5)c5c(N)ncnc54)nn3)[C@H](OC)C2)C/C(=N/OCc2ccccc2)[C@H](C)/C=C(\C)[C@@H](O)[C@@H](OC)C(=O)[C@H](C)C[C@H](C)/C=C/C=C/C=C/1C` [Example 174], for which the IC50 was 0.01 to 1 µM in experiment [1], > 1 µM in experiment [2] and > 1 µM in experiment [3].

Turning to `CO[C@H]1C[C@@H]2CC[C@@H](C)[C@@](O)(O2)C(=O)C(=O)N2CCCC[C@H]2C(=O)O[C@H]([C@H](C)C[C@@H]2CC[C@H](n3cc(CCCC(=O)NCCOCCOCCOCCC(=O)NCCOCCOCCOCCC(=O)NCCCCn4nc(-c5cc6cc(O)ccc6[nH]5)c5c(N)ncnc54)nn3)[C@H](OC)C2)C/C(=N/OCc2ccccc2)[C@H](C)/C=C(\C)[C@@H](O)[C@@H](OC)C(=O)[C@H](C)C[C@H](C)/C=C/C=C/C=C/1C` [Example 175], the IC50 in experiment [1], in experiment [2] and in experiment [3] was > 1 µM each time.

Consider `CO[C@H]1C[C@@H]2CC[C@@H](C)[C@@](O)(O2)C(=O)C(=O)N2CCCC[C@H]2C(=O)O[C@H]([C@H](C)C[C@@H]2CC[C@H](n3cc(CCCC(=O)NCCOCCOCCOCCC(=O)NCCOCCOCCC(=O)NCCCCn4nc(-c5ccc6oc(N)nc6c5)c5c(N)ncnc54)nn3)[C@H](OC)C2)C/C(=N/OC(C)(C)C)[C@H](C)/C=C(\C)[C@@H](O)[C@@H](OC)C(=O)[C@H](C)C[C@H](C)/C=C/C=C/C=C/1C` [Example 176], for which the IC50 is 0.01 to 1 µM in experiment [1], > 1 µM in experiment [2] and > 1 µM in experiment [3].

Consider `CO[C@H]1C[C@@H]2CC[C@@H](C)[C@@](O)(O2)C(=O)C(=O)N2CCCC[C@H]2C(=O)O[C@H]([C@H](C)C[C@@H]2CC[C@H](n3cc(CCCC(=O)NCCOCCOCCOCCC(=O)NCCOCCOCCOCCC(=O)NCCCCn4nc(-c5ccc6oc(N)nc6c5)c5c(N)ncnc54)nn3)[C@H](OC)C2)C/C(=N/OC(C)(C)C)[C@H](C)/C=C(\C)[C@@H](O)[C@@H](OC)C(=O)[C@H](C)C[C@H](C)/C=C/C=C/C=C/1C` [Example 177], for which the IC50 in experiment [1] is 0.01 to 1 µM; in experiment [2], > 1 µM; in experiment [3], > 1 µM.

On to `CO[C@H]1C[C@@H]2CC[C@@H](C)[C@@](O)(O2)C(=O)C(=O)N2CCCC[C@H]2C(=O)O[C@H]([C@H](C)C[C@@H]2CC[C@H](n3cc(CCCC(=O)NCCOCCOCCOCCC(=O)NCCOCCOCCOCCC(=O)NCCCCn4nc(-c5cc6cc(O)ccc6[nH]5)c5c(N)ncnc54)nn3)[C@H](OC)C2)C/C(=N/OC(C)(C)C)[C@H](C)/C=C(\C)[C@@H](O)[C@@H](OC)C(=O)[C@H](C)C[C@H](C)/C=C/C=C/C=C/1C` [Example 178], for which the results for the IC50 in experiment [1], in experiment [2] and in experiment [3] were 0.01 to 1 µM, > 1 µM and > 1 µM, respectively.

As to `CO[C@H]1C[C@@H]2CC[C@@H](C)[C@@](O)(O2)C(=O)C(=O)N2CCCC[C@H]2C(=O)O[C@H]([C@H](C)C[C@@H]2CC[C@H](n3cc(CCCC(=O)NCCOCCOCCOCCC(=O)NCCOCCOCCOCCC(=O)NCCCCn4nc(-c5cc6cc(O)ccc6[nH]5)c5c(N)ncnc54)nn3)[C@H](OC)C2)C[C@@H](OC)[C@H](C)/C=C(\C)[C@@H](O)[C@@H](OC)C(=O)[C@H](C)C[C@H](C)/C=C/C=C/C=C/1C` [Example 179], the values for the IC50 in experiment [1], in experiment [2] and in experiment [3] were 0.001 to 0.01 µM, 0.0316 to 1 µM and > 1 µM, respectively.

`CO[C@H]1C[C@@H]2CC[C@@H](C)[C@@](O)(O2)C(=O)C(=O)N2CCCC[C@H]2C(=O)O[C@H]([C@H](C)C[C@@H]2CC[C@H](n3cc(CCCC(=O)N(C)CCOCCOCCOCCC(=O)N(C)CCOCCOCCC(=O)N(C)CCCCn4nc(-c5ccc6oc(N)nc6c5)c5c(N)ncnc54)nn3)[C@H](OC)C2)CC(=O)[C@H](C)/C=C(\C)[C@@H](O)[C@@H](OC)C(=O)[C@H](C)C[C@H](C)/C=C/C=C/C=C/1C` [Example 180]: the IC50 was 0.001 to 0.01 µM in experiment [1], > 1 µM in experiment [2] and > 1 µM in experiment [3].

These data come from patent publication US20230093861A1, “RAPAMYCIN ANALOGS AS MTOR INHIBITORS” (Revolution Medicines, Inc., priority 2017, published 2023).
